From patent publication US20170182077A1, “METHODS AND PHARMACEUTICAL COMPOSITIONS FOR THE TREATMENT OF ACUTE EXACERBATIONS OF CHRONIC OBSTRUCTIVE PULMONARY DISEASE” (INSERM (INSTITUT NATIONAL DE LA SANTÉ ET DE LA RECHERCHE …, priority 2014, published 2017) come the findings set out here.

The subject of test [1] is peripheral blood mononuclear cells (PBMC). The experiment in a line: Th17 cytokine secretion by peripheral blood mononuclear cells exposed to S. pneumoniae or PHA. Format: cell-based, human. Particulars: PHA 1 μg/ml, supernatants after 24 h. The procedure: Peripheral blood and induced or spontaneous sputum were collected in stable COPD patients (n=10), in smokers (without COPD, n=13)) and in non smoker healthy controls (n=14) (CPP 2008-A00690-55) in order to evaluate ex vivo the Th17 response to infection with S. pneumoniae. Peripheral blood mononuclear cells (PBMC) were purified on Ficoll Paque gradient and 3×10^6 cells/ml in complete RPMI1640 were exposed to S. pneumoniae (MOI=2) or to a positive control, phytohemagglutinin (1 μg/ml) (PHA, Difco). After 90 min, antibiotics were added to stop bacteria growth and supernatants were collected after 24 h incubation. In parallel, another batch of cells was incubated with brefeldin-A (10 μg/ml, Sigma) for 4 h before collection and was used for intracellular immuno-staining of cytokines in lymphocytes.

The subject of test [2] is lung cells (NKT cells) from Air and COPD mice. The experiment in a line: Cytokine production by total lung cells stimulated with alpha-GalactosylCeramide (ELISA). Format: cell-based, C57B1/6 mice. As to conditions: αGC 100 ng/ml, 48 hrs; for production of IL-22: after Sp challenge vs non infected, ELISA of supernatants. As to the method:
FIG. 3—Lung cells from Air and COPD mice were treated with αGC (100 ng/ml) or not (Ctl, non stimulated) for 48 hrs. The concentrations of IL-22, IL-17, IFN-γ and IL-4 were analyzed by ELISA in the supernatants. Values represented the mean±SEM.
C57B1/6 mice were exposed to CS generated from 5 cigarettes per day, 5 days a week, over a period of 12 weeks using a smoking machine (Emka, Scireq, Canada).
Mice were inoculated with a clinical isolate of S. pneumoniae serotype 1 (Sp) (5×10^4 cfu). Bacteria stocks were kept frozen at −80° C. Bacteria were thawn just before infection, and the number of cfu was checked on chocolate plates. Infection was performed by intranasal route (50 μl/mouse).
Cytokine production was analyzed in total lung cells. For this, 5×10^5 lung cells were seeded on 96-well plates and then stimulated with alpha-GalactosylCeramide, or α-GC (100 ng/ml), and coated anti-CD3 Ab. Forty-eight hours later, supernatants were collected and analyzed for IFN-γ, IL-4, IL-17 and IL-22 concentration by ELISA (R&D Systems).
In general terms: In an ELISA, binding on a coated surface is turned into a signal by an enzyme label.

Where [3] appears, read: pulmonary cells from Air and COPD mice, after Sp infection, ELISA.

As to phytohemagglutinin [PHA], in test [1] (PBMC of COPD patients), the “response (secretion, mainly IL-17 and IL-22)” value is listed as “partially altered”. In test [1] (PBMC of non-smokers and smokers), the “levels of IL-17 and IL-22” value was “significantly increased”.

As for `CCCCCCCCCCCCCCCCCCCCCCCCCC(=O)N[C@@H](CO[C@H]1O[C@H](CO)[C@H](O)[C@H](O)[C@H]1O)[C@H](O)[C@H](O)CCCCCCCCCCCCCC` [alpha-GalactosylCeramide], in test [2] (pulmonary cells from Air and COPD mice, after Sp challenge, ELISA), the IL-17 production entry was “failed to increase IL-17 production”. Further, the “levels of IFN-y” value in test [2] (setting [3]) is given as “higher levels”. Besides, in test [2] (setting [3]), the “levels of IL-4” value is “higher levels”. For the same compound, the “production of IL-22” value in test [2] (pulmonary cells from Air mice) was “higher production of IL-22”; in test [2] (pulmonary cells from COPD mice), “absent”.
